Reference: patent US5130119A, “Method of using fluorosubstituted benzene derivatives in F-NMR imaging” (Schering Aktiengesellschaft, priority 1988, dated 1992)
Where “and” joins values, the source holds several entries; their conditions need not be identical. Equal values may be shown once.

How the values were obtained:
[1] = intravenous acute tolerability (LD50) on the mouse; conditions: in vivo
Procedure: Thus, for example, an intravenous acute tolerability (LD50) of 4 mmol/kg of body weight was determined on the mouse for 5-[N-(4-fluoro-2-trifluoromethylphenyl)sulfamoyl)-isophthalic acid (Example 13).

[2] = test system: rat (whole animal; bladder area); assay: in vivo 19F NMR spectroscopic pH determination; parameters: species or system female rats of the Wistar-Han-Schering strain (SPF); conditions: 0.5 mmol/kg i.v.
Procedure: Performance of in vivo ^19 F NMR spectroscopic pH determinations with 5-[N-(4-fluoro-2-trifluoromethylphenyl)sulfamoyl]-isophthalic acid (Example 13)
An aqueous solution of the fluorocompound is produced with a concentration of 0.4 mol/1. The pH of the aqueous solution is adjusted with NaOH to 7.2.
The NMR spectra are measured with an animal experimental nuclear spin tomograph (General Electric), which operates with a field strength of 2 tesla (corresponds to an RF resonance frequency of 80.5 MHz). The signals can be picked up by the whole-body coil (animal size) or surface coils.
The experiments are performed with female rats of the Wistar-Han-Schering strain (SPF) with a body weight of 200 g. The animal is anesthetized by an intramuscular injection of Rompun/Ketavet (1:1, 1 ml/kg of body weight). Then a butterfly needle is placed in the animal in one of the tail veins. The animal is placed in a whole-body coil and the latter is tuned to the fluororesonance frequency. The spectrum of the entire animal is developed with this coil, i.e., no volume-selective spectroscopy is performed.
The fluorinated compound is applied intravenously within 30 seconds in a dose of 0.5 mmol/kg and an F spectrum is registered within 4 minutes.
After measurement of the total animal, the animal was removed from the coil and positioned on a surface coil so that the bladder area was picked up by the coil. […] The intense signals originate from the fluorocompound in the bladder. The chemical shift in the aromatic range is identical with the deep-field signal of the aromatic range in FIG. 2.

[3] = test system: kidney, bladder and ureter; assay: 19F imaging; assay type: in vivo, rat
From the text: FIG. 4 relates to Example 50 and is the projection ^19 F image of the kidney, bladder, and ureters of a rat administered 0.75 mmol/kg of 5-[N-4-fluoro-2-trifluoromethylphenyl)sulfamoyl] isophthalic acid and 0.2 mmol/kg GdDTPA.
Production of the solution of the fluorinated substance as well as preparation of the animal take place as in taking the ^19 F NMR spectra.
The test animal is placed in the measuring coil and the fluorinated compound is applied in a dose of 0.75 mmol/kg of body weight by the tail vein in 1 minute. Then an intravenous application takes place, also by needle in the tail vein, of GdDTPA in a dose of 0.2 mmol/kg. Making of the image takes place with a projection spin echo sequence and the parameters: TR=28 msec (repetition rate), TE=4 msec (echo time), NEX=256 (number of averagings); the total measuring time is 15 minutes.

Question: With O=C(O)c1cc(C(=O)O)cc(S(=O)(=O)Nc2ccc(F)cc2C(F)(F)F)c1 [Example 13, 5-[N-(4-fluoro-2-trifluoromethylphenyl)sulfamoyl]-isophthalic acid] as the molecule, how does the LD50 [1] read?
Answer: 4000 µmol/kg

Question: What about the “pH calculated from the chemical shifts (2 environments)” value ([2]; 5 minutes after application, whole rat, 2 tesla, CF3 reference signal) of the same molecule?
Answer: 6.5 and 7.7

Question: And the “19F signal from the alkaline range” value ([2]; 50 minutes after application)?
Answer: almost disappeared

Question: What about the “19F signal in the acid range” value ([2]; 50 minutes after application) of the same molecule?
Answer: split into several signals

Question: What about the “location of lowest pH in the animal” value ([2]; bladder area, surface coil, 20 minutes measuring time) of the same molecule?
Answer: the lowest (most acid) pH is in the bladder

Question: What about the excretion ([2]; bladder area, surface coil, 70 minutes after application, 20 minutes measuring time) of the same molecule?
Answer: renally excreted

Question: And the “distribution at the beginning of the experiment” value ([2]; whole rat)?
Answer: found only in the blood

Question: And the “distribution 50 minutes after application” value ([2]; whole rat, 50 minutes)?
Answer: distributed extravascularly

Question: What about the “excretion (imaging)” value ([3]; 0.75 mmol/kg i.v. plus GdDTPA 0.2 mmol/kg) of the same molecule?
Answer: renally excreted

Question: What about the 19F image ([3]; 0.75 mmol/kg i.v. plus GdDTPA 0.2 mmol/kg i.v., projection spin echo, 15 minutes) of the same molecule?
Answer: shows the kidney, bladder and ureter

Question: And the “F concentration in kidney, bladder and ureter” value ([3]; 0.75 mmol/kg i.v., reabsorption of water in these areas)?
Answer: high F concentration
